The numbers were not newly measured in patent publication US9968537B2, “Anti-dandruff compositions and hair care formulations containing zinc pyrithione and quaternary ammonium salt” (JUBILANT LIFE SCIENCES LIMITED, priority 2013, dated 2018), which cites them from elsewhere.

The conditions of this series: background statement.

`[O-][n+]1ccccc1S.[Zn]` [ZPTO, zinc pyridine-2-thiol-N-oxide]: the solubility in water is given as 6-12 ppm.
